Assays:
[1] = test system: MDBK cells (established cell line); test: Culturability when L-cystine was replaced with L-cysteine, MDBK (Example 9); type: cell-based, bovine; conditions: end of third subculture, 0.072 g/L
Method: (§1) Cells used: MDBK cells (established cell line), RL34 cells (established cell line), duck liver-derived cells (primary cultured cells)
(§2) Amount of L-cysteine hydrochloride monohydrate added: Since L-cystine is a dimer of L-cysteine, L-cysteine hydrochloride monohydrate was added in an amount twice the number of moles of L-cystine.
(§3) MDBK cells and RL34 cells were each subcultured in a complete medium prepared by adding 1% PSA and 10% FBS to the above basal medium. Duck liver-derived cells were also subcultured in a complete medium prepared by adding 1% PSA and 10% serum to the above basal medium. In both cases, subculture was performed every 3 to 4 days, and subculture was performed up to the third time.

[2] = test system: RL34 cells (established cell line); test: Culturability when L-cystine was replaced with L-cysteine, RL34 (Example 9); type: cell-based, rat; conditions: RL34, end of third subculture, 0.072 g/L
Method: as §1, §2, §3

[3] = test system: duck liver-derived cells (primary cultured cells); test: Culturability when L-cystine was replaced with L-cysteine, duck liver-derived cells (Example 9); type: cell-based; conditions: end of third subculture, 0.072 g/L
Method: as §1, §2, §3

[4] = test system: mouse-derived myoblast cell line C2C12; test: Cell culture test of amino acid conditions, C2C12 (Example 1); type: cell-based; conditions: C2C12, from condition 19 (1/8 amount) vs condition 20
Method: Of the constituents to be contained in Dulbecco's Modified Eagle Medium (DMEM), those excluding amino acids was dissolved in ion-exchanged water to prepare A.A.-IMEM Seven types of yeast extract ([…], and J) shown below were each further added to the A.A.-IMEM Buffer, so that the final concentration in the medium was 1 g/L. Various amino acids required for the proliferation of cultured cells in DMEM were added to “A.A.-IMEM Buffer+yeast extract” according to conditions 1 to 16 in Table 3, and a cell culture test was conducted. […] The amount of each amino acid added was the same as that contained in the formulation of DMEM. In addition, the same amino acid composition as that of DMEM was used as P.C. (positive control), while the same amino acid composition as that of DMEM but with 1⁄8th the amount added was used as condition 19, and that with 1/32nd the amount added was used as condition 20. All reagents used in the experiment were of food additive grade. 10% heat-inactivated fetal bovine serum (FBS) and 1% penicillin-streptomycin-amphotericin (PSA) were further added to A.A.-IMEM Buffer+yeast extract and the amino acids of each condition listed in Table 3, so as to conduct a cell culture test. For the cell culture test, mouse-derived myoblast cell line C2C12 was used. […]

Row | SMILES | difference in culturability due to replacement of L-cystine [1] | difference in culturability due to replacement of L-cystine [2] | difference in culturability due to replacement of L-cystine [3] | amount of amino acid required in the medium [4]
1 | Cl.N[C@@H](CS)C(=O)O.O [L-cysteine hydrochloride monohydrate] | almost no difference in culturability | almost no difference in culturability | almost no difference in culturability | –
2 | N[C@@H](CSSC[C@H](N)C(=O)O)C(=O)O [L-cystine] | – | – | – | at least 6.13 mg/L
3 | NC(=O)CC[C@H](N)C(=O)O [L-glutamine] | – | – | – | ≥ 74.5 mg/L

— patent publication US20260209692A1, “BASAL MEDIUM COMPOSITION FOR ANIMAL CELL CULTURE” (TableMark Co., Ltd., priority 2023, published 2026)
